Measurements published in ChEMBL document CHEMBL3991601, “The target landscape of clinical kinase drugs” (Science, 2017).
Activity calls are given as the source filed them.

What was measured:
[1] = target: T1, Adenine phosphoribosyltransferase (Homo sapiens, UniProt P07741)
T1 sequence (P07741 whole entry): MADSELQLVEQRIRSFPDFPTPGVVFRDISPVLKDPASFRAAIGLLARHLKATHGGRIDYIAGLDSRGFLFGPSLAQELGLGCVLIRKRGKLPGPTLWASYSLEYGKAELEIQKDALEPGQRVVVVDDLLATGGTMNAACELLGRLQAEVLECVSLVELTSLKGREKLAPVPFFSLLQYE

[2] = target: T2, Breakpoint cluster region protein (Homo sapiens, UniProt P11274)
T2 sequence (P11274 whole entry): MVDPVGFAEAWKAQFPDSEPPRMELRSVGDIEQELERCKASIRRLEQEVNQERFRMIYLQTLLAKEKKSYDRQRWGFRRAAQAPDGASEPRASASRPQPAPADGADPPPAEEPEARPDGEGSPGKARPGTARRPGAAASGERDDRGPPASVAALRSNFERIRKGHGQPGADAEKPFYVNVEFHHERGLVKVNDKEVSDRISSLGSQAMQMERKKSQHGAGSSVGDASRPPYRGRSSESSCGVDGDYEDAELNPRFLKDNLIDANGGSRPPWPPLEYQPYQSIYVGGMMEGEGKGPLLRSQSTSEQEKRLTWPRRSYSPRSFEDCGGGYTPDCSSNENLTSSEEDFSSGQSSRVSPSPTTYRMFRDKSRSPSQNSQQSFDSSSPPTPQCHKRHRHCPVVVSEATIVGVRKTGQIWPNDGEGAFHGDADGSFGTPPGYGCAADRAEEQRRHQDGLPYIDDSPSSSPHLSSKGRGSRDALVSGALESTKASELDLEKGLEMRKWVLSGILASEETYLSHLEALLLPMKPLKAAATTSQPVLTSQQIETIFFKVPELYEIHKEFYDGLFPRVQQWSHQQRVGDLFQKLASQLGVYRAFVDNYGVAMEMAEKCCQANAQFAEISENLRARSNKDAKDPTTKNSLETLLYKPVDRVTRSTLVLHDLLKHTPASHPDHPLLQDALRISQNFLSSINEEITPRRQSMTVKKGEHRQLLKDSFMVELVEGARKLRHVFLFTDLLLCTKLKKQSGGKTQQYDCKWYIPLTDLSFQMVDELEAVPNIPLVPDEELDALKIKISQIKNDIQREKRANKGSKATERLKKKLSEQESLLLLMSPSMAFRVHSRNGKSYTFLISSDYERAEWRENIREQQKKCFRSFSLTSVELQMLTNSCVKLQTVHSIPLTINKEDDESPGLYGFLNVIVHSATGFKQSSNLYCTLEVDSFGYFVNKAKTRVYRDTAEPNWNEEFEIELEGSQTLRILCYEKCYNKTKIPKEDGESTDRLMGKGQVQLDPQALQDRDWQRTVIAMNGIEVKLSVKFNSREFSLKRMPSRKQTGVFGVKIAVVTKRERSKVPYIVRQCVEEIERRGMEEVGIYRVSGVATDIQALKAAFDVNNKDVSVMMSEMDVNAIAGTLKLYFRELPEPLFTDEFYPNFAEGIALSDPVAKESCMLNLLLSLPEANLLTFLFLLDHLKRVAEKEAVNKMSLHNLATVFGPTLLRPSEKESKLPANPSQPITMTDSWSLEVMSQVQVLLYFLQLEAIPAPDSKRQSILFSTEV

[3] = target: T3, Probable ATP-dependent RNA helicase DDX6 (Homo sapiens, UniProt P26196)
T3 sequence (P26196 whole entry): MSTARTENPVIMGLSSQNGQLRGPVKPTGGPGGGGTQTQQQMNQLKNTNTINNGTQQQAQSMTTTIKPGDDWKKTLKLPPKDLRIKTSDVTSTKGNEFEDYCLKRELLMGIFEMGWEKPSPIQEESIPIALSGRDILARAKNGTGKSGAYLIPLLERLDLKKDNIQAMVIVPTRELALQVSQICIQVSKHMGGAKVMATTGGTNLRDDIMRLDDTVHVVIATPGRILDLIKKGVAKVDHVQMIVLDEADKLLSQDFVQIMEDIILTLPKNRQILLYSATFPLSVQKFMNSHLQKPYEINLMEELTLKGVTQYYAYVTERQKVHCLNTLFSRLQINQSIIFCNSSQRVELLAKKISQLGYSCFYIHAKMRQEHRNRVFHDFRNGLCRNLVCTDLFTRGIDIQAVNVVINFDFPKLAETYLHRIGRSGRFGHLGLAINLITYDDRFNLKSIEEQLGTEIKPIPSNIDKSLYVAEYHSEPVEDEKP

Heme oxygenase 2 = target: T4, Heme oxygenase 2 (Homo sapiens, UniProt P30519)
T4 sequence (P30519 whole entry): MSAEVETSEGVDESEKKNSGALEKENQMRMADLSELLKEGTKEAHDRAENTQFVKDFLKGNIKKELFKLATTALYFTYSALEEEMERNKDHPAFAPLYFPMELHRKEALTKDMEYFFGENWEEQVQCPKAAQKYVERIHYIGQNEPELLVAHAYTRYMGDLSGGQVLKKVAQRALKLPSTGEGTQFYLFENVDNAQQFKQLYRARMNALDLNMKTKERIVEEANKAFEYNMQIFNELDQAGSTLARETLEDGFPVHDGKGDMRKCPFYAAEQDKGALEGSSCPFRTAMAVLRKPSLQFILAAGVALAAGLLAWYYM

[4] = target: T5, Serine/threonine-protein kinase TBK1 (Homo sapiens, UniProt Q9UHD2)
T5 sequence (Q9UHD2 whole entry): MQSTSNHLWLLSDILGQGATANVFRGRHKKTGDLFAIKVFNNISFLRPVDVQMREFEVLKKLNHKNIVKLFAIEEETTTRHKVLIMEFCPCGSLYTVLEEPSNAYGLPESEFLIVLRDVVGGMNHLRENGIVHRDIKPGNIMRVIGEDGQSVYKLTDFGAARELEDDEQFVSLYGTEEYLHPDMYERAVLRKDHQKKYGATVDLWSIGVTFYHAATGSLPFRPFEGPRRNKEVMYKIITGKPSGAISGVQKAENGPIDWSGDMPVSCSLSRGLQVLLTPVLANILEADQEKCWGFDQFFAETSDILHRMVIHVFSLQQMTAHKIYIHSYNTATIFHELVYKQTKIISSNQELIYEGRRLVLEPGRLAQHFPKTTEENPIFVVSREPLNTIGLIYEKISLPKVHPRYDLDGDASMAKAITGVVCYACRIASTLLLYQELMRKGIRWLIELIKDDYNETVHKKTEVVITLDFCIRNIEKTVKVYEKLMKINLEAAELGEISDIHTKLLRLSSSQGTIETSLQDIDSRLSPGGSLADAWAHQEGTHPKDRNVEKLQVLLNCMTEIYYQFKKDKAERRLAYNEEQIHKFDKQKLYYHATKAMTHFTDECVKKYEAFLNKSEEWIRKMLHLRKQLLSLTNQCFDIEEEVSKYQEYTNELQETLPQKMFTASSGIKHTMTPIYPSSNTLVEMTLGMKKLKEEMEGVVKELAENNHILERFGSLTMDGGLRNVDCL
Also: in the data inactive means no Kd found up to 30 µM.

SMILES | Kd [1] | Kd [2] | Kd [3] | Kd (Heme oxygenase 2) | Kd [4]
O=C(NOC[C@H](O)CO)c1ccc(F)c(F)c1Nc1ccc(I)cc1F [MIRDAMETINIB] | > 30 µM (inactive) | > 30 µM (inactive) | > 30 µM (inactive) | > 30 µM (inactive) | > 30 µM (inactive)
COc1cccc2cc(-c3nc([C@H]4CC[C@H](C(=O)O)CC4)n4ncnc(N)c34)[nH]c12 [OSI-027] | > 30 µM (inactive) | > 30 µM (inactive) | > 30 µM (inactive) | > 30 µM (inactive) | > 30 µM (inactive)
O=C(Nc1ccc(OC(F)(F)F)cc1)c1sccc1NCc1ccnc2ccccc12 [OSI-930] | > 30 µM (inactive) | > 30 µM (inactive) | > 30 µM (inactive) | > 30 µM (inactive) | > 30 µM (inactive)
C=CC(=O)Nc1cc(Nc2nccc(-c3cn(C)c4ccccc34)n2)c(OC)cc1N(C)CCN(C)C [OSIMERTINIB] | > 30 µM (inactive) | > 30 µM (inactive) | > 30 µM (inactive) | > 30 µM (inactive) | > 30 µM (inactive)
O=C(NC[C@H](O)CO)c1ccncc1Nc1ccc(I)cc1F [PIMASERTIB] | > 30 µM (inactive) | > 30 µM (inactive) | > 30 µM (inactive) | > 30 µM (inactive) | > 30 µM (inactive)
COc1cc(F)c(F)c(Nc2ccc(I)cc2F)c1NS(=O)(=O)C1(C[C@H](O)CO)CC1 [REFAMETINIB] | > 30 µM (inactive) | > 30 µM (inactive) | > 30 µM (inactive) | > 30 µM (inactive) | > 30 µM (inactive)
COCCN1CCN(Cc2ccc(-c3n[nH]c4c3C(=O)c3c(NC(=O)NN5CCOCC5)cccc3-4)cc2)CC1 [RGB-286638] | > 30 µM (inactive) | 1.24 µM (active) | > 30 µM (inactive) | > 30 µM (inactive) | 2.01 µM (active)
C=CC(=O)Nc1cccc(Nc2nc(Nc3ccc(N4CCN(C(C)=O)CC4)cc3OC)ncc2C(F)(F)F)c1 [ROCILETINIB] | > 30 µM (inactive) | > 30 µM (inactive) | > 30 µM (inactive) | > 30 µM (inactive) | > 30 µM (inactive)
O=C(O)c1ccc2c(c1)nc(Nc1cccc(Cl)c1)c1ccncc12 [SILMITASERTIB] | > 30 µM (inactive) | > 30 µM (inactive) | > 30 µM (inactive) | > 30 µM (inactive) | > 30 µM (inactive)
Cn1c(=O)c(F)c(Nc2ccc(I)cc2F)c2c(=O)n(C[C@@H](O)CO)cnc21 [TAK-733] | > 30 µM (inactive) | > 30 µM (inactive) | > 30 µM (inactive) | > 30 µM (inactive) | > 30 µM (inactive)
O[C@H]1CC[C@H](Nc2ncc3nc(Nc4c(F)cc(F)cc4F)n([C@H]4CCOC4)c3n2)CC1 [TANZISERTIB] | > 30 µM (inactive) | > 30 µM (inactive) | > 30 µM (inactive) | > 30 µM (inactive) | > 30 µM (inactive)
C[C@@H]1COC(Nc2ccc3ncnc(Nc4ccc(OCc5nccs5)c(Cl)c4)c3c2)=N1 [VARLITINIB] | > 30 µM (inactive) | > 30 µM (inactive) | > 30 µM (inactive) | > 30 µM (inactive) | > 30 µM (inactive)
CNC(=O)c1cccc(-c2ccc3c(N4CCOC[C@@H]4C)nc(N4CCOC[C@@H]4C)nc3n2)c1 [VISTUSERTIB] | > 30 µM (inactive) | > 30 µM (inactive) | > 30 µM (inactive) | > 30 µM (inactive) | > 30 µM (inactive)
NC(=O)c1ccc(N(C(N)=O)c2c(F)cccc2F)nc1-c1ccc(F)cc1F [VX-702] | > 30 µM (inactive) | > 30 µM (inactive) | > 30 µM (inactive) | > 30 µM (inactive) | > 30 µM (inactive)
COc1cc2ncnc(Nc3ccc(O)cc3)c2cc1OC [WHI-P131] | > 30 µM (inactive) | > 30 µM (inactive) | > 30 µM (inactive) | > 30 µM (inactive) | > 30 µM (inactive)
